Experimental findings from US11167039B2, “MET antibody drug conjugates” (priority 2016, dated 2021) are described below.

“Also recorded” adds a separate entry of the source.

In experiment [1] the test system is Hs 746T. In words: Cell killing, Hs 746T. It is filed as cell-based, human. More on the design: key: Sensitive; Resistant. The note with it: Gastric Ca. Here is the method:
(§1) Briefly described, 2-3×10^3 cells/well in 100 μL of culture medium may be plated in 96 well plates and incubated overnight at 37° C., 5% CO2. The MET-ADCs, MET antibody(ies), control MMAE or control hIgG4 conjugated to MMAE with cysteine conjugation antibody(ies) may be diluted 1:3 in serum-free culture medium starting from 100 nM (final) in 50 μL as 3× concentrations to the HT-29 cells. At the end of an additional 5-6 days of cell growth at 37° C. in a humidified incubator with 5% CO2, the plates may be equilibrated to room temperature for 30 minutes and 100 μL/well of CellTiter-Glo® reagent (Promega Corp., Fitchburg, Wis.) may then be added to assess cell viability. Cell viability may be determined by measuring luminescence.
(§2) Various tumor cell lines and normal human cells may be tested for MET-ADC induced cell killing activity essentially as described above in Example 10 as assessed for MET receptor density. MET cell surface density was determined by indirect immunofluorescence staining of cell surface antigens on cultured cells using QIFIKIT (Dako). […] Following a forty-five minute incubation, cells may be incubated for 1 hour on ice with FITC conjugated antibody diluted 1:50 in FACS buffer. Then cells may be washed and receptor numbers may be determined by indirect immunofluorescence staining of the QIFIKIT beads using a Becton Dickinson LSRII flow cytometer.

The subject of experiment [2] is Hs746T xenografts. Briefly: Hs746T gastric cancer xenograft model. The experiment is classed as in vivo, mouse. The note with it: 3 mg/kg once per week for 4 weeks. Here is the method: (§3) Female athymic nude mice age 6- to 7-weeks old are available commercially, including from Harlan Laboratories (Indianapolis, Ind.). The mice are allowed to acclimate for one week and fed ad libitum on a normal low fat (4.5%) diet, which may be continued for the duration of the study. Tumor cells may be purchased from ATCC and may be cultured in cell culture media such as RPMI 1640 (Life Technologies) with L-glutamine, 25 mM HEPES supplemented with 10% FBS and 1 mM Na Pyruvate. Cells may be detached, washed with serum free medium and then resuspended at a final concentration of 50×10^6 cells/mL in serum free RPMI 1640. Tumor cells, approximately 5×10^6, may be injected subcutaneously in the rear flank of subject mice in a 1:1 mixture of serum free growth medium and Matrigel (Becton Dickinson, Bedford, Mass.). Tumor and body weight measurements may be performed twice weekly. Prior to treatment, mice can be randomized based on tumor size using a randomization algorithm. Treatments may be started when the average tumor volume reaches 100 mm^3. […]
(§4) MET-ADCs and control hIgG4-MMAE may be prepared in Phosphate Buffered Saline (PBS) prior to dose. Tumor size may be determined by caliper measurements. […] Log volume data can be analyzed with two-way repeated measures ANOVA by time and treatment using SAS PROC MIXED software (SAS Institutes Inc, Cary, N.C.). […]

Experiment [3] deals with CFPAC-1. In words: Cell killing, CFPAC-1. It is filed as cell-based, human. The conditions noted are these: CFPAC-1, PANC Ca. Further details: key: Sensitive; Resistant. As to the method: as §1, §2
Experiment [4] has as its system SNU869. Briefly: Cell killing, SNU869. The experiment is classed as cell-based, human. More on the design: key: Sensitive; Resistant. The note with it: SNU869, Cholangiocarcinoma. As to the method:
as §1, §2

In experiment [5] the test system is NCI-H292. Briefly: Cell killing, NCI-H292. The experiment is classed as cell-based, human. More on the design: key: Sensitive; Resistant. The note with it: NCI-H292, NSCLC. As to the method: as §1, §2
The subject of experiment [6] is HT-29 colon cancer tumor xenografts. Briefly: HT-29 mouse xenograft model. The experiment is classed as in vivo. The note with it: 1 mg/kg x3 Q7D. Here is the method:
as §3
MET-ADCs and control hIgG4-MMAE may be prepared in Phosphate Buffered Saline (PBS) prior to dose. Tumor size may be determined by caliper measurements. […] Tumor volume data can be transformed to a log scale to equalize variance across time and treatment groups. Log volume data can be analyzed with two-way repeated measures ANOVA by time and treatment using SAS PROC MIXED software (SAS Institutes Inc, Cary, N.C.). Treatment groups are compared with the specified control group at each time point.

Experiment [7] has as its system A204. In words: Cell killing, A204. It is filed as cell-based, human. Further details: key: Sensitive; Resistant. The conditions noted are these: A204, Rhabdomyosarcoma. Here is the method:
as §1, §2

Experiment [8] relates to PC3. In words: Cell killing, PC3. It is filed as cell-based, human. More on the design: key: Sensitive; Resistant. The note with it: PC3, Prostatic Ca. As to the method:
as §1, §2

Experiment [9] concerns BxPC-3 xenograft. Briefly: BxPC-3 pancreatic cancer xenograft model. The experiment is classed as in vivo, mouse. The note with it: vs control hIgG4-Lys-ADC. As to the method:
as §3, §4

Experiment [10] relates to HPAF-II. In words: Cell killing, HPAF-II. The experiment is classed as cell-based, human. Further details: key: Sensitive; Resistant. The note with it: PANC Ca. As to the method: as §1, §2
Experiment [11] concerns SNU1196. In words: Cell killing, SNU1196. It is filed as cell-based, human. Further details: key: Sensitive; Resistant. The note with it: SNU1196, Cholangiocarcinoma. As to the method: as §1, §2
Experiment [12] concerns MET expressing tumor cells. Briefly: Correlation of tumor cell MET expression level and sensitivity to MET-ADC. The experiment is classed as cell-based. Here is the method:
as §1, §2

For experiment [13], the system named is HT-29 cells. Briefly: HT-29 cell-killing assay. It is filed as cell-based, human. Further details: key to Sensitive/ Resistant: Sensitive; Resistant. Here is the method:
Therefore, the HT-29 cell line may be used to determine if test MET-ADCs can kill MET overexpressing tumor cells in vitro.
as §1, §2

Experiment [14] concerns Panc-1. Briefly: Cell killing, Panc-1. The experiment is classed as cell-based, human. More on the design: key: Sensitive; Resistant. The note with it: Panc-1, PANC Ca. As to the method:
as §1, §2

Experiment [15] concerns BxPC-3. In words: Cell killing, BxPC-3. Further details: key: Sensitive; Resistant. It is filed as cell-based, human. The conditions noted are these: BxPC-3, PANC Ca. Here is the method:
as §1, §2

Consider “MET-ADC#1: emibetuzumab lysine-conjugated via (2,5-dioxopyrrolidin-1-yl) 2-azidoacetate and Octyne-β-Glucn-MMAE”, for which the “Sensitive/ Resistant” value is recorded as “S” in experiment [1]; “R” in experiment [3]; “S” in experiment [4]; “S” in [5]; “R” in [7]; “S” in experiment [8]. Further, the “Sensitive/ Resistant” value in experiment [10] is “S”; in [11], “R”; in experiment [13] (HT29, Colorectal Ca), “S”; in [14] it was “R”; in experiment [15], “S”. For the same substance, in experiment [2], the antitumor efficacy result is “significantly greater antitumor efficacy than the IgG4 Lys-MMAE control treatments; also recorded: durable and complete tumor regression”. Moreover, the “Observation (efficacy in HT-29 mouse xenograft)” value is on record as “Tumor regression^” in experiment [6] and “far superior efficacy” in [6] (listed as MET-ADC #1). Also, the anti-tumor activity result in experiment [9] was “dramatic anti-tumor activity”. In [12] (similar experiments using other cells), the “killing activity compared with MET-ADC #6” value is “superior killing activity than MET-ADC #6”. In addition, the “approximate threshold of MET cell surface density for tumor cell killing” value in [12] (tumor cells sensitive to MMAE, not secreting HGF) was > 32,000 receptor per cells. Besides, the “cell killing activity in HT-29 cells” value in [13] (HT-29 cells) is “kills MET expressing HT-29 tumor cells better than the parental anti-MET antibody, emibetuzumab, free MMAE, or a combination of emibetuzumab and free MMAE; also recorded: highly potent in killing HT-29 cells”. Further, the “greater potency in killing HT-29 tumors cells as compared to ABBV-399” value in [13] (HT-29 cells) was 200 fold.
